We go through 1 molecule from ChEMBL document CHEMBL1139525, “Targeting and inhibition of cell growth by an engineered dendritic nanodevice” (J Med Chem, 2005).

In one assay the test system is KB. As to the kind of experiment: Concentration required to completely block the uptake of either G5-FI-FA or G5-FI-FA-MTX dendrimer (30 nM) in FAR expressing KB cells. In kind it is functional, cell-based. To be noted: Homo sapiens.
The nature of assay [1]: Dissociation constant against folic acid receptor (FAR); Value ranges from 0.1-1 nM. Details: species or system Homo sapiens.

SMILES strings stand for the structures.

Usually Kd stands for the concentration at which binding is half-saturated. Lower therefore signals tighter binding. `Nc1nc(=O)c2nc(CNc3ccc(C(=O)N[C@@H](CCC(=O)O)C(=O)O)cc3)cnc2[nH]1` [FOLIC ACID]: the Concentration in the assay with KB is 50 µM. Besides, binding in assay [1] was put at a Kd of 1 nM.
